Measurements taken from patent publication US8420630B2 (Boehringer Ingelheim Pharma GmbH & Co. KG, priority 2001, dated 2013).

biological target: T1, CDK1/cyclinB1 (Homo sapiens, UniProt P06493); assay: Cyclin B1-CDK1 kinase inhibition test; type: biochemical; settings: CDK1 tests (Example 13); recombinant cyclin B1/CDK1, substrate histone H1; read-out: CDK1/cyclinB1 IC50 value
T1 construct: made in house; host or cells: High Five insect cells (Trichoplusia ni), baculovirus coinfection
Summary of the method: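 Baculovirus-expressed CDK1/cyclin B1 phosphorylated histone H1 with ATP mix containing 0.045 mM ATP plus ^33P-ATP for 30 min at 30 °C. Protein was precipitated with TCA and filter-bound radioactivity read by scintillation counting. Olomoucin at 30 and 300 μM final served as internal control.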

T1 sequence (P06493 whole entry): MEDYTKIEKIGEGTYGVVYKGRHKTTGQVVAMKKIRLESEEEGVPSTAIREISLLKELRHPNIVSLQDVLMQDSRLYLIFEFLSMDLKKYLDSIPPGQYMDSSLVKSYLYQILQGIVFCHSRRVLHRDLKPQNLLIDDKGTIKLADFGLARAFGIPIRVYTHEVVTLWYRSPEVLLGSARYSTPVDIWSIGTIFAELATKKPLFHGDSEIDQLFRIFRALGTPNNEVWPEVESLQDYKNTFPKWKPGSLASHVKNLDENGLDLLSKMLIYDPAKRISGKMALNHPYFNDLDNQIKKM
T1 sequence (P14635 whole entry partner): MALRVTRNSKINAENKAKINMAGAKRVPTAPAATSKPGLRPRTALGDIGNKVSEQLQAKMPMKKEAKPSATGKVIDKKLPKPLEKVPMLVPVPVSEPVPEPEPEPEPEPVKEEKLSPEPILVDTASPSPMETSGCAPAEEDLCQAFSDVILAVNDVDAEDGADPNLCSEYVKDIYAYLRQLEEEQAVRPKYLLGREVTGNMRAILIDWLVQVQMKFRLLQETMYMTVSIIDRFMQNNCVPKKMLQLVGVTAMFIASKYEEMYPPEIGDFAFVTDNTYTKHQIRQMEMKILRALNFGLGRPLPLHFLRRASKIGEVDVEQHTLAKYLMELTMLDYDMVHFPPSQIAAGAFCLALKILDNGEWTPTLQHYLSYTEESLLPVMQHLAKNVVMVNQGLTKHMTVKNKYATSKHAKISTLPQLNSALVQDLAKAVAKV

IC50, < 0.1 µM:
O=C(Nc1ccccc1)c1ccc(Nc2ncc([N+](=O)[O-])c(N3CCc4[nH]cnc4C3)n2)cc1 [Example 1(026), 2-(4-phenylaminocarbonyl-phenylamino)-4-(1,4,6,7-tetrahydro-imidazo[4,5-c]pyridin-5-yl)-5-nitro-pyrimidine]
CC(=O)NCCNc1nc(Nc2ccc3[nH]nnc3c2)ncc1C(F)(F)F [Example 2(042), N-{2-[2-(1H-Benzotriazol-5-ylamino)-5-trifluoromethyl-pyrimidin-4-ylamino]-ethyl}-acetamide]
O=C1CCCN1CCCNc1nc(Nc2ccc(Cl)c(Cl)c2)ncc1C(F)(F)F [Example 1(041), 2-(3,4-dichloro-phenylamino)-4-(3-(2-oxo-pyrrolidin-1-yl)-propyl-1-amino)-5-trifluoromethyl-pyrimidine]
O=C(O)c1ccc(Nc2ncc(C(F)(F)F)c(NCCCN3CCCC3=O)n2)cc1 [Example 1(021), 2-(4-carboxy-phenylamino)-4-(3-(2-oxo-pyrrolidin-1-yl)-propyl-1-amino)-5-trifluoromethyl-pyrimidine]
O=S(=O)(c1ccc(Nc2ncc(C(F)(F)F)c(N3CCc4nc[nH]c4C3)n2)cc1)N1CCOCC1 [Example 1(695), [4-(Morpholin-4-sulphonyl)-phenyl]-[4-(3,4,6,7-tetrahydro-imidazo[4,5-5]pyridin-5-yl)-5-trifluoromethyl-pyrimidin-2-yl]-amine]
CC(=O)NCCNc1nc(Nc2ccc(S(=O)(=O)N3CC(C)NC(C)C3)cc2)ncc1C(F)(F)F (stereo not drawn) [Example 2(061), N-(2-{2-[4-(3,5-Dimethyl-piperazin-1-sulphonyl)-phenylamino]-5-trifluoromethyl-pyrimidin-4-ylamino}-ethyl)-acetamide]
CN(C)S(=O)(=O)c1ccc(Nc2ncc(C(F)(F)F)c(NCCCN3CCCC3=O)n2)cc1 [Example 2(041), N,N-Dimethyl-4-{4-[3-(2-oxo-pyrrolidin-1-yl)-propylamino]-5-trifluoromethyl-pyrimidin-2-ylamino}-phenylsulphonamide]
Clc1cnc(Nc2ccc3cn[nH]c3c2)nc1N1CCc2[nH]cnc2C1 [Example 2(134), [5-Chloro-4-(1,4,6,7-tetrahydro-imidazo[4,5-c]pyridin-5-yl)-pyrimidin-2-yl]-(1H-indazol-6-yl)-amine]
NCCCCNc1nc(Nc2ccc(Cl)c(Cl)c2)ncc1C(F)(F)F [Example 1(304), 2-(3,4-dichlorophenylamino)-4-(4-aminobutylamino)-5-trifluoromethyl-pyrimidine]
CN(C)CC(=O)NCCCNc1nc(Nc2ccc(C(N)=O)cc2)ncc1C(F)(F)F [Example 7(029), 4-(4-[3-(2-dimethylamino-acetylamino)-propylamino]-5-trifluoromethyl-pyrimidin-2-ylamino)-benzamide]
O=C(O)CCc1ccc(Nc2ncc(C(F)(F)F)c(NCCc3cccc(O)c3)n2)cc1 [Example 1(046), 2-(4-(2-carboxy-1-ethyl)-phenylamino)-4-(2-(3-hydroxyphenyl)-1-ethyl-amino)-5-trifluoromethyl-pyrimidine]
CN1CCC(N(C)c2nc(Nc3ccc(Cl)cc3)ncc2[N+](=O)[O-])CC1 [Example 1(044), 2-(4-chloro-phenylamino)-4-(N-(1-methyl-piperidin-4-yl)-N-methyl-amino)-5-nitro-pyrimidine]
N#Cc1ccc(Nc2ncc([N+](=O)[O-])c(N3CCc4[nH]cnc4C3)n2)cc1 [Example 1(032), 2-(4-cyano-phenylamino)-4-(1,4,6,7-tetrahydro-imidazo[4,5-c]pyridin-5-yl)-5-nitro-pyrimidine]
CC(=O)NCCNc1nc(Nc2ccc(C(=O)NC(C)c3ccccc3)cc2)ncc1C(F)(F)F (stereo not drawn) [Example 8(028), 4-[4-(2-acetylamino-ethylamino)-5-trifluoromethyl-pyrimidin-2-ylamino]-N-(1-phenyl-ethyl)-benzamide]
Cc1cc(Nc2ncc([N+](=O)[O-])c(NCC3CCC(CN)CC3)n2)ccc1Cl (stereo not drawn) [Example 1(115), 2-(4-chloro-3-methyl-phenylamino)-4-(4-aminomethyl-cyclohexylmethylamino)-5-nitro-pyrimidine]
CN(C)[C@H]1CC[C@H](Nc2nc(Nc3ccc(C(=O)O)cc3)ncc2C(F)(F)F)CC1 [Example 1(054), 2-(4-carboxy-phenylamino)-4-(trans-4-dimethylamino-cyclohexylamino)-5-trifluoromethyl-pyrimidine]
CC(=O)NCCNc1nc(Nc2ccc(N(C)S(C)(=O)=O)cc2)ncc1C(F)(F)F [Example 2(011), 2-(4-(N-Methyl-N-methylsulphonyl)amino-phenylamino)-4-(2-acetylamino-ethylamino)-5-trifluoromethyl-pyrimidine]
NCCCCCNc1nc(Nc2cccc(Cl)c2)ncc1C(F)(F)F [Example 1(077), 2-(3-chloro-phenylamino)-4-(5-amino-1-pentylamino)-5-trifluoromethyl-pyrimidine]
CC(=O)NCCNc1nc(Nc2ccc(S(=O)(=O)N3CCOCC3)cc2)ncc1C(F)(F)F [Example 2(057), N-(2-{2-[4-(Morpholin-4-sulphonyl)-phenylamino]-5-trifluoromethyl-pyrimidin-4-ylamino}-ethyl)-acetamide]
O=C1CCCN1CCCNc1nc(Nc2cccc(CNCC(F)(F)F)c2)ncc1C(F)(F)F [Example 11(034), 1-[3-(2-{3-[(2,2,2-Trifluoro-ethylamino)-methyl]-phenylamino}-5-trifluoromethyl-pyrimidin-4-ylamino)-propyl]-pyrrolidin-2-one]
FC(F)(F)c1cnc(Nc2ccc(Cl)c(Cl)c2)nc1NCCN1CCOCC1 [Example 1(104), 2-(3,4-dichloro-phenylamino)-4-(2-morpholino-1-ethylamino)-5-trifluoromethyl-pyrimidine]
CC(=O)NCCNc1nc(Nc2ccc3cnn(C)c3c2)ncc1C(F)(F)F [Example 1(654), N-{2-[2-(1-methyl-1H-indazol-6-ylamino)-5-trifluoromethyl-pyrimidin-4-ylamino]-ethyl}-acetamide]
CC(=O)NCCNc1nc(Nc2ccc(CC(=O)N(C)C)cc2)ncc1C(F)(F)F [Example 2(053), 2-{4-[4-(2-Acetylamino-ethylamino)-5-trifluoromethyl-pyrimidin-2-ylamino]-phenyl}-N,N-dimethyl-acetamide]
FC(F)(F)c1cnc(Nc2cccc(Br)c2)nc1N1CCc2[nH]cnc2C1 [Example 1(038), 2-(3-bromo-phenylamino)-4-(1,4,6,7-tetrahydro-imidazo[4,5-c]pyridin-5-yl)-5-trifluoromethyl-pyrimidine]
FC(F)(F)c1cnc(Nc2cccc(Cl)c2)nc1N1CCc2[nH]cnc2C1 [Example 1(005), 2-(3-chlorophenylamino)-4-(1,4,6,7-tetrahydro-imidazo[4,5-c]pyridin-5-yl)-5-trifluoromethyl-pyrimidine]
CC(=O)NCCCNc1nc(Nc2ccc(C(N)=O)cc2)ncc1C(F)(F)F [Example 7(027), 4-[4-(3-acetylamino-propylamino)-5-trifluoromethyl-pyrimidin-2-ylamino]-benzamide]
NCCCNc1nc(Nc2ccc(Cl)c(Cl)c2)ncc1C(F)(F)F [Example 1(035), 2-(3,4-dichloro-phenylamino)-4-(3-amino-propylamino)-5-trifluoromethyl-pyrimidine]
NS(=O)(=O)c1ccc(Nc2ncc([N+](=O)[O-])c(NCCCN3CCCC3=O)n2)cc1 [Example 1(008), 2-(4-aminosulphonyl-phenylamino)-4-(3-(2-oxo-pyrrolidin-1-yl)-propyl-1-amino)-5-nitro-pyrimidine]
O=[N+]([O-])c1cnc(Nc2ccc(Br)cc2)nc1N1CCc2[nH]cnc2C1 [Example 1(116), 2-(4-bromophenylamino)-4-(1,4,6,7-tetrahydro-imidazo[4,5-c]pyridin-5-yl)-5-nitro-pyrimidine]
CC(=O)NCCNc1nc(Nc2ccc(S(=O)(=O)N3CCN(C)CC3)cc2)ncc1C(F)(F)F [Example 2(058), N-(2-{2-[4-(4-Methyl-piperazin-1-sulphonyl)-phenylamino]-5-trifluoromethyl-pyrimidin-4-ylamino}-ethyl)-acetamide]
NC(=O)CCNc1nc(Nc2ccc(Cl)c(Cl)c2)ncc1C(F)(F)F [Example 1(025), 2-(3,4-dichloro-phenylamino)-4-(2-aminocarbonyl-1-ethylamino)-5-trifluoromethyl-pyrimidine]
NCCNc1nc(Nc2ccc(Cl)c(Cl)c2)ncc1C(F)(F)F [Example 1(080), 2-(3,4-dichloro-phenylamino)-4-(2-amino-1-ethylamino)-5-trifluoromethyl-pyrimidine]
O=[N+]([O-])c1cnc(Nc2ccc(Cl)cc2)nc1N1CCC[C@H]1CO [Example 1(055), 2-(4-chloro-phenylamino)-4-((2S)-2-hydroxymethyl-pyrrolidin-1-yl)-5-nitro-pyrimidine]
O=C1CCCN1CCCNc1nc(Nc2cc(Cl)cc(Cl)c2)ncc1C(F)(F)F [Example 1(049), 2-(3,5-dichloro-phenylamino)-4-(3-(2-oxo-pyrrolidin-1-yl)-propyl-1-amino)-5-trifluoromethyl-pyrimidine]
O=C1CCCN1CCCNc1nc(Nc2ccc3cn[nH]c3c2)ncc1Br [Example 2(106), 1-{3-[5-Bromo-2-(1H-indazol-6-ylamino)-pyrimidin-4-ylamino]-propyl}-pyrrolidin-2-one]
CC(=O)NCCNc1nc(Nc2ccc(Br)cc2)ncc1C(F)(F)F [Example 2(007), 2-(4-bromophenylamino)-4-(2-acetylamino-ethylamino)-5-trifluoromethyl-pyrimidine]
